Reference: patent US20250347692A1, “METHOD FOR DETERMINING THE RESPONSE TO METHOTREXATE (MTX) IN A HUMAN SUBJECT DIAGNOSED WITH RHEUMATOID ARTHRITIS” (BIOHOPE SCIENTIFIC SOLUTIONS FOR HUMAN HEALTH, S.L, priority 2022, published 2025)

Test system: PBMCs from naïve RA patients
Assay: ROS TEST: ROS production of PHA-activated PBMCs exposed to MTX, fluorimetry
Assay type: cell-based, human
Conditions: PBMCs of naïve RA patients with clinical remission at 6 months of methotrexate (n=17) versus those without (n=8), E. coli stimulated, ANOVA p 0.0003
From the text: Therefore, the decision was made to investigate a model of in vitro exposure of RA patients' cells to MTX and the measurement of its direct effect as a pharmacodynamic biomarker of response. […] Therefore, the hypothesis is that treatment of PBMCs with the drug methotrexate causes an increase in reactive oxygen species (ROS) production due to increased apoptosis in T lymphocytes in responder patients. […] Based on the above, in the present example the above two assays will be carried out using PBMCs obtained or isolated from RA patients. Briefly, first, a peripheral blood draw is performed from a rheumatoid arthritis patient who meets the inclusion criteria indicated below in the “Methodology” section, and peripheral blood mononuclear cells (PBMCs) are isolated by density gradient. These PBMCs are frozen and maintained in liquid nitrogen for a time period of at least two weeks. After this time, the PBMCs are thawed and incubated in a flat-bottomed p96 plate at 37° C. and 5% CO2 for 24 hours. The next day, phytohemagglutinin (PHA) and MTX are added to the corresponding wells and the plate is incubated for 48 hours. Finally, the probes corresponding to each test are added: • ROS test: ROS probe+E. coli • MONOCYTE test: resazurin Both tests were carried out on the same plate, read at Ex/Em 535/610 wavelengths, in a fluorescence reader.

## CN(Cc1cnc2nc(N)nc(N)c2n1)c1ccc(C(=O)N[C@@H](CCC(=O)O)C(=O)O)cc1 [MTX, methotrexate]
  ROS production levels (fluorescence units) after exposure of PBMCs to MTX: significantly increased
